Here are results for 52 substances from patent US20260008818A1, “CYCLIC PEPTIDE OR SALT THEREOF, AND USES THEREOF” (FUJIFILM Corporation, priority 2023, published 2026).

Numbered stars: 1 amine (or outer) side, 2 acyl side, 3 side chain; on linkers, the order of the positions; unused ones are H or OH. Bridge positions count the residues as written; N and C are the ends. Ends that are not written are not given here. acetyl = K(acetyl): lysine side chain modified with a haloacetyl group whose halogen is replaced by the thiol of another residue, giving a thioether ring, O=C(C[*:1])[*:2]; COCH2 = acetyl group that carries the bridge

This test relates to Recombinant Human FGFR1 alpha (IIIc) Fc Chimera Protein. Put plainly: Binding affinity of enzymatically synthesized cyclic peptide to FGFR by ELISA. To be noted: luminescence signal at reaction concentration 10 nmol/L, SEQ ID NO: 39 standardized to 1, enzyme synthesis product. The method in brief: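 Graded A–D from luminescence at 10 nmol/L peptide, expressed relative to SEQ ID NO: 39 after subtracting wells lacking receptor. Read-out used anti-Myc antibody (2 h, RT) with chemiluminescent substrate, following 3 h RT binding of peptide to immobilized FGFR1α(IIIc)-Fc, 5 ng per well.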

Take “281 (FCTIQQLILVNHRAPFWVK(COCH2)T; thioether 2-19 (inferred)) [compound 281]”: the “Evaluation result of binding affinity to FGFR” value (“Evaluation result” for short) is “B (0.5 or more and less than 0.7)”. On to “227 (YK(COCH2)TWERLIFLGHIAPFWVCR; thioether 2-19 (inferred)) [compound 227]”, for which the “Evaluation result” value is “C (0.1 or more and less than 0.5)”.

On to “82 (HCGYERLQFHGHEAPFRVKV; not fully specified; Description of Artificial Sequence: Cyclic peptide) [compound 82]”, for which the “Evaluation result” value is “A (0.7 or more)”.

With “85 (HCIYERLQFHGHEAPFRVKV; not fully specified; Description of Artificial Sequence: Cyclic peptide) [compound 85]”, the “Evaluation result” value is recorded as “A (0.7 or more)”. With “313 (HCQWERLIFLGHIAPFWVK(COCH2)R; thioether 2-19 (inferred)) [compound 313]”, the “Evaluation result” value was “C (0.1 or more and less than 0.5)”. Consider “74 (WCSYERLQFHGHEAPFRVK(COCH2)V; thioether 2-19 (inferred)) [compound 74]”, for which the “Evaluation result” value was “A (0.7 or more)”. “373 (CERLIFHGHEAPFWVK(COCH2); thioether 1-16) [compound 373]”: the “Evaluation result” value was “A (0.7 or more)”. With “47 (SCWTQLQWQAHLAPFWTK(COCH2)V; thioether 2-18 (inferred)) [compound 47]”, the “Evaluation result” value is “C (0.1 or more and less than 0.5)”.

Consider “320 (HCTWERLIFLGHLAPFWVK(COCH2)R; thioether 2-19 (inferred)) [compound 320]”, for which the “Evaluation result” value was “C (0.1 or more and less than 0.5)”.

For the substance “45 (YCFQKLEFFGHLAPFLFK(COCH2)S; thioether 2-18 (inferred)) [compound 45]”, the “Evaluation result” value is “B (0.5 or more and less than 0.7)”.

Turning to “284 (HCKYERLQFHGHEAPFRVK(COCH2)V; thioether 2-19 (inferred)) [compound 284]”, the “Evaluation result” value is on record as “A (0.7 or more)”.

For the substance “306 (HCSYERLQFHGHEAMFRVK(COCH2)V; thioether 2-19 (inferred)) [compound 306]”, the “Evaluation result” value was “C (0.1 or more and less than 0.5)”. To “114 (HCSYERLQFHGHEVPFRVK(COCH2)V; thioether 2-19 (inferred)) [compound 114]” belongs “C (0.1 or more and less than 0.5)”.

With “285 (HCSYKRLQFHGHEAPFRVK(COCH2)V; thioether 2-19 (inferred)) [compound 285]”, the “Evaluation result” value was “B (0.5 or more and less than 0.7)”. The same measure for “59 (HCSYEALQFHGHEAPFRVK(COCH2)V; thioether 2-19 (inferred)) [compound 59]”: “C (0.1 or more and less than 0.5)”; for “110 (HCSYERLQFHGFEAPFRVK(COCH2)V; thioether 2-19 (inferred)) [compound 110]”: “B (0.5 or more and less than 0.7)”; for “67 (GCSYERLQFHGHEAPFRVK(COCH2)V; thioether 2-19 (inferred)) [compound 67]”: “A (0.7 or more)”. For “293 (HCSYERLQFHGHEAPFRKK(COCH2)V; thioether 2-19 (inferred)) [compound 293]”, the “Evaluation result” value is “C (0.1 or more and less than 0.5)”. As to “362 (WCHYAPFWVLNEGQLK(COCH2)V; thioether 2-16) [compound 362]”, the “Evaluation result” value was “C (0.1 or more and less than 0.5)”.

Regarding “154 (HCSYERLTFHGHEAPFRVK(COCH2)V; thioether 2-19 (inferred)) [compound 154]”, the “Evaluation result” value was “A (0.7 or more)”.

Consider “89 (HCWYERLQFHGHEAPFRVKV; not fully specified; Description of Artificial Sequence: Cyclic peptide) [compound 89]”, for which the “Evaluation result” value was “A (0.7 or more)”. On to “131 (HCSYTRLQFHGHEAPFRVK(COCH2)V; thioether 2-19 (inferred)) [compound 131]”, for which the “Evaluation result” value was “A (0.7 or more)”. The same measure for “181 (HCSYERLQFHGHFAPFRVK(COCH2)V; thioether 2-19 via Ac) [compound 181]”: “A (0.7 or more)”; for “56 (ACSYERLQFHGHEAPFRVK(COCH2)V; thioether 2-19 (inferred)) [compound 56]”: “A (0.7 or more)”. To “239 (HK(COCH2)TWERLIFLGHIAPFLVCR; thioether 2-19 (inferred)) [compound 239]” belongs “B (0.5 or more and less than 0.7)”; to “269 (VCYEQLVVWGHIAPFLTK(COCH2)H; thioether 2-18 (inferred)) [compound 269]”, “C (0.1 or more and less than 0.5)”; to “361 (QCPWSTTQQVPFIK(COCH2)V; thioether 2-14) [compound 361]”, “C (0.1 or more and less than 0.5)”. In the case of “187 (HCSYERLQFHGHTAPFRVK(COCH2)V; thioether 2-19 via Ac) [compound 187]”, the “Evaluation result” value is “A (0.7 or more)”. For the substance “184 (HCSYERLQFHGHNAPFRVK(COCH2)V; thioether 2-19 via Ac) [compound 184]”, the “Evaluation result” value is listed as “A (0.7 or more)”. To “207 (HCSYERLQFHGHEAPFRSK(COCH2)V; thioether 2-19 via Ac; not fully specified) [compound 207]” belongs “C (0.1 or more and less than 0.5)”; to “144 (HCSYERHQFHGHEAPFRVK(COCH2)V; thioether 2-19 (inferred)) [compound 144]”, “A (0.7 or more)”. In the case of “327 (HCSYERLIFHGHEAPFWVK(COCH2)V; thioether 2-19 (inferred)) [compound 327]”, the “Evaluation result” value is “A (0.7 or more)”. To “169 (HCSYERLQFWGHEAPFRVK(COCH2)V; thioether 2-19 (inferred)) [compound 169]” belongs “A (0.7 or more)”.

Take “254 (WCQLRFQGHLAPFIILK(COCH2)H; thioether 2-17 (inferred)) [compound 254]”: the “Evaluation result” value is “C (0.1 or more and less than 0.5)”. To “170 (HCSYERLQFNGHEAPFRVK(COCH2)V; thioether 2-19 (inferred)) [compound 170]” belongs “B (0.5 or more and less than 0.7)”; to “372 (CRLIFHGHEAPFWVK(COCH2)V; thioether 1-15) [compound 372]”, “C (0.1 or more and less than 0.5)”.

For the substance “69 (LCSYERLQFHGHEAPFRVK(COCH2)V; thioether 2-19 (inferred)) [compound 69]”, the “Evaluation result” value was “A (0.7 or more)”. Consider “345 (QCYLPFWFYQKARLLFHYIK(COCH2)S; thioether 2-20) [compound 345]”, for which the “Evaluation result” value was “C (0.1 or more and less than 0.5)”. The same measure for “276 (QCYVQLYVWGHPAPFYWDK(COCH2)S; thioether 2-19 (inferred)) [compound 276]”: “C (0.1 or more and less than 0.5)”.

As for “247 (ACKYVPHIFQQHQAPYLVK(COCH2)S; thioether 2-19 (inferred)) [compound 247]”, the “Evaluation result” value was “B (0.5 or more and less than 0.7)”. As to “91 (HCQYERLQFHGHEAPFRVK(COCH2)V; thioether 2-19 via acetyl; not fully specified; printed as H-(C)-QYERLQFHGHEAPFRV-(K(acetyl))-V) [compound 91]”, the “Evaluation result” value is “A (0.7 or more)”.

“165 (HCSYERLQFIGHEAPFRVK(COCH2)V; thioether 2-19 (inferred)) [compound 165]”: the “Evaluation result” value was “A (0.7 or more)”. To “311 (RCTWERLIFLGHIAPFWVK(COCH2)R; thioether 2-19 (inferred)) [compound 311]” belongs “C (0.1 or more and less than 0.5)”. For the substance “117 (HCSYERLQFHGHEADFRVK(COCH2)V; thioether 2-19 (inferred)) [compound 117]”, the “Evaluation result” value was “B (0.5 or more and less than 0.7)”. To “364 (WCQLRFQGHLAPFIIK(COCH2)S; thioether 2-16) [compound 364]” belongs “C (0.1 or more and less than 0.5)”; to “329 (HCSYERLRFHGHIAPFWVK(COCH2)V; thioether 2-19 (inferred)) [compound 329]”, “A (0.7 or more)”.

For “288 (HCSYERLQFKGHEAPFRVK(COCH2)V; thioether 2-19 (inferred)) [compound 288]”, the “Evaluation result” value was “B (0.5 or more and less than 0.7)”. On to “323 (HCTWERLIFLGHIAPFHVK(COCH2)R; thioether 2-19 (inferred)) [compound 323]”, for which the “Evaluation result” value was “A (0.7 or more)”.

“111 (HCSYERLQFHGYEAPFRVK(COCH2)V; thioether 2-19 (inferred)) [compound 111]”: the “Evaluation result” value was “C (0.1 or more and less than 0.5)”. The same measure for “289 (HCSYERLQFHKHEAPFRVK(COCH2)V; thioether 2-19 (inferred)) [compound 289]”: “C (0.1 or more and less than 0.5)”; for “108 (HCSYERLQFHQHEAPFRVK(COCH2)V; thioether 2-19 (inferred)) [compound 108]”: “C (0.1 or more and less than 0.5)”. Turning to “167 (HCSYERLQFFGHEAPFRVK(COCH2)V; thioether 2-19 (inferred)) [compound 167]”, the “Evaluation result” value is “A (0.7 or more)”.
